In ChEMBL document CHEMBL2311481, “Synthesis, characterization and antimalarial activity of quinoline-pyrimidine hybrids” (Bioorg Med Chem, 2013):
In brackets after ≈: the same amount, converted by molar mass. One block for each compound: values may come before it.

What was measured:
[1] = Selectivity index, ratio of IC50 for CHO cells to IC50 for chloroquine-susceptible Plasmodium falciparum D10; format: toxicity, cell-based; conditions: hamster, read-out: Ratio IC50
[2] = Solubility in octanol at pH 7.4; format: physicochemical
[3] = Aqueous solubility in pH 7.4 PBS buffer at 37 degC incubated for 24 hrs by HPLC method; format: physicochemical; conditions: pH 7.4, 24 h
[4] = Partition coefficient, log D of the compound using n-octanol/PBS buffer system at pH 5.5 by HPLC method; format: physicochemical
CHO = assay: Cytotoxicity against CHO cells after 48 hrs by MTT assay; format: cell-based; conditions: Cricetulus griseus
Plasmodium falciparum [5] = assay: Antimalarial activity against chloroquine-resistant Plasmodium falciparum Dd2 asexual erythrocyte forms after 48 hrs by parasite LDH assay; format: functional, organism-based; conditions: Dd2, 48 h
Plasmodium falciparum [6] = assay: Resistance index, ratio of IC50 for chloroquine-resistant Plasmodium falciparum Dd2 to IC50 for chloroquine-susceptible Plasmodium falciparum D10; format: functional
[7] = Partition coefficient, log D of the compound using n-octanol/PBS buffer system at pH 7.4 by HPLC method; format: physicochemical
Plasmodium falciparum [8] = assay: microbe, parasite or virus in culture; conditions: D10, 48 h
[9] = Solubility in octanol at pH 5.5; format: physicochemical; conditions: buffer
[10] = Aqueous solubility in pH 5.5 PBS buffer at 37 degC incubated for 24 hrs by HPLC method; format: physicochemical; conditions: pH 5.5, 24 h
[11] = Dissociation constant, pKa of the compound at pH 7.4
[12] = n-octanol/PBS buffer, read-out: logD

Structure (SMILES): Nc1cc(OCCNc2ccnc3cc(Cl)ccc23)nc(N)n1
selectivity ratio [1]: 764 | solubility [2]: 1.84 µM (≈ 0.609 µg/mL) | solubility [3]: 0.23 µM (≈ 0.0761 µg/mL) | logD [4, 12]: -0.3 | IC50 (CHO): 174000 nM | IC50 (Plasmodium falciparum [5]): 580 nM | Ratio IC50 (Plasmodium falciparum [6]): 2.6 | logD [7, 12]: 0.9 | IC50 (Plasmodium falciparum [8]): 230 nM | solubility [9]: 0.15 µM (≈ 0.0496 µg/mL) | solubility [10]: 0.3 µM (≈ 0.0992 µg/mL)

Structure (SMILES): CC(COc1cc(N)nc(N)n1)Nc1ccnc2cc(Cl)ccc12 (stereo unspecified)
selectivity ratio [1]: 1030 | solubility [2]: 2.14 µM (≈ 0.738 µg/mL) | solubility [3]: 0.25 µM (≈ 0.0862 µg/mL) | logD [4, 12]: -1.34 | IC50 (CHO): 250000 nM | IC50 (Plasmodium falciparum [5]): 543 nM | Ratio IC50 (Plasmodium falciparum [6]): 2.3 | logD [7, 12]: 0.92 | IC50 (Plasmodium falciparum [8]): 243 nM | solubility [9]: 0.07 µM (≈ 0.0241 µg/mL) | solubility [10]: 1.45 µM (≈ 0.5 µg/mL)

Structure (SMILES): Nc1cc(OCCCNc2ccnc3cc(Cl)ccc23)nc(N)n1
selectivity ratio [1]: 494 | solubility [2]: 1.2 µM (≈ 0.414 µg/mL) | solubility [3]: 0.12 µM (≈ 0.0414 µg/mL) | logD [4, 12]: -0.08 | IC50 (CHO): 107000 nM | IC50 (Plasmodium falciparum [5]): 467 nM | Ratio IC50 (Plasmodium falciparum [6]): 2.2 | logD [7, 12]: 1.01 | IC50 (Plasmodium falciparum [8]): 217 nM | solubility [9]: 0.25 µM (≈ 0.0862 µg/mL) | solubility [10]: 0.31 µM (≈ 0.107 µg/mL)

Structure (SMILES): Nc1cc(OCCOCCNc2ccnc3cc(Cl)ccc23)nc(N)n1
selectivity ratio [1]: 303 | solubility [2]: 0.44 µM (≈ 0.165 µg/mL) | solubility [3]: 0.84 µM (≈ 0.315 µg/mL) | logD [4, 12]: -0.29 | IC50 (CHO): 250000 nM | IC50 (Plasmodium falciparum [5]): 4100 nM | Ratio IC50 (Plasmodium falciparum [6]): 5 | logD [7, 12]: -0.28 | IC50 (Plasmodium falciparum [8]): 837 nM | solubility [9]: 0.6 µM (≈ 0.225 µg/mL) | solubility [10]: 1.17 µM (≈ 0.439 µg/mL)

Structure (SMILES): CCC(COc1cc(N)nc(N)n1)Nc1ccnc2cc(Cl)ccc12 (stereo unspecified)
selectivity ratio [1]: 995 | solubility [2]: 5.68 µM (≈ 2.04 µg/mL) | solubility [3]: 0.02 µM (≈ 0.00718 µg/mL) | logD [4, 12]: 1.07 | IC50 (CHO): 156000 nM | IC50 (Plasmodium falciparum [5]): 210 nM | Ratio IC50 (Plasmodium falciparum [6]): 1.4 | logD [7, 12]: 2.47 | IC50 (Plasmodium falciparum [8]): 157 nM | solubility [9]: 0.49 µM (≈ 0.176 µg/mL) | solubility [10]: 0.04 µM (≈ 0.0144 µg/mL)

Structure (SMILES): Nc1cc(NCCNc2ccnc3cc(Cl)ccc23)nc(N)n1
selectivity ratio [1]: 607 | solubility [2]: 0.72 µM (≈ 0.237 µg/mL) | solubility [3]: 0.12 µM (≈ 0.0396 µg/mL) | logD [4, 12]: -0.07 | IC50 (CHO): 190000 nM | IC50 (Plasmodium falciparum [5]): 1020 nM | Ratio IC50 (Plasmodium falciparum [6]): 3.2 | logD [7, 12]: 0.78 | IC50 (Plasmodium falciparum [8]): 317 nM | solubility [9]: 0.45 µM (≈ 0.148 µg/mL) | solubility [10]: 0.52 µM (≈ 0.171 µg/mL)

Structure (SMILES): Nc1cc(NCCCNc2ccnc3cc(Cl)ccc23)nc(N)n1
selectivity ratio [1]: 308 | solubility [2]: 0.79 µM (≈ 0.272 µg/mL) | solubility [3]: 0.62 µM (≈ 0.213 µg/mL) | logD [4, 12]: -0.74 | IC50 (CHO): 255000 nM | IC50 (Plasmodium falciparum [5]): 1210 nM | Ratio IC50 (Plasmodium falciparum [6]): 1.4 | logD [7, 12]: 0.11 | IC50 (Plasmodium falciparum [8]): 850 nM | solubility [9]: 0.16 µM (≈ 0.055 µg/mL) | solubility [10]: 0.88 µM (≈ 0.303 µg/mL)

Structure (SMILES): Nc1cc(NCCCCNc2ccnc3cc(Cl)ccc23)nc(N)n1
selectivity ratio [1]: 280 | solubility [2]: 2.91 µM (≈ 1.04 µg/mL) | solubility [3]: 0.94 µM (≈ 0.336 µg/mL) | logD [4, 12]: -0.74 | IC50 (CHO): 162000 nM | IC50 (Plasmodium falciparum [5]): 1260 nM | Ratio IC50 (Plasmodium falciparum [6]): 2.2 | logD [7, 12]: 0.49 | IC50 (Plasmodium falciparum [8]): 580 nM | solubility [9]: 0.19 µM (≈ 0.068 µg/mL) | solubility [10]: 1.04 µM (≈ 0.372 µg/mL)

Structure (SMILES): Nc1cc(Nc2ccc(Nc3ccnc4cc(Cl)ccc34)cc2)nc(N)n1
selectivity ratio [1]: 63 | solubility [3]: ND(Insoluble) | logD ([4]; octanol/water): ND(Insoluble) | IC50 (CHO): 13800 nM | IC50 (Plasmodium falciparum [5]): 107 nM | Ratio IC50 (Plasmodium falciparum [6]): 0.5 | logD ([7]; octanol/water): ND(Insoluble) | IC50 (Plasmodium falciparum [8]): 220 nM | solubility [10]: 0.01 µM (≈ 0.00378 µg/mL)

Structure (SMILES): Nc1cc(N2CCN(c3ccnc4cc(Cl)ccc34)CC2)nc(N)n1
selectivity ratio [1]: 2070 | solubility [3]: 0.01 µM (≈ 0.00356 µg/mL) | logD [4, 12]: -0.99 | IC50 (CHO): 146000 nM | IC50 (Plasmodium falciparum [5]): 157 nM | Ratio IC50 (Plasmodium falciparum [6]): 2.4 | logD ([7]; octanol/water): ND(Insoluble) | IC50 (Plasmodium falciparum [8]): 70 nM | solubility [9]: 0.07 µM (≈ 0.0249 µg/mL) | solubility [10]: 0.66 µM (≈ 0.235 µg/mL)

Structure (SMILES): CC[C@H]1CN2CCc3cc(OC)c(OC)cc3[C@@H]2C[C@@H]1C[C@H]1NCCc2cc(OC)c(OC)cc21 [EMETINE]
IC50 (CHO): 125000 nM

solubility [2]: 12.8 µM (≈ 3.19 µg/mL) | solubility [3]: 0.15 µM (≈ 0.0373 µg/mL) | logD [4, 12]: 0.76 | pKa [11]: 7.36 | logD [7, 12]: 1.93 | IC50 (Plasmodium falciparum [8]): 70 nM | solubility [9]: 6.67 µM (≈ 1.66 µg/mL) | solubility [10]: 1.16 µM (≈ 0.289 µg/mL)
Structure (SMILES): CCc1nc(N)nc(N)c1-c1ccc(Cl)cc1 [PYRIMETHAMINE]
